For 21 compounds, IC50 and Kd results are on record in patent US11389438B2 (CHDI Foundation, Inc., priority 2019, dated 2022).

By IC50 is commonly meant the point on the concentration scale where inhibition reaches its midpoint. Usually Kd stands for a measure of binding affinity in units of concentration.

SMILES strings stand for the structures. Like-named read-outs stand apart in the source and are kept apart here.

Test [1] deals with pre-formed polyQ46 or Exon1-polyQ46 aggregates (mHTT) (Homo sapiens, UniProt P42858, INS38QQQQQQQQQQQQQQQQQQQQQQQQQ). Briefly: Q46_RBA radioligand binding assay (displacement of [3H]-radioligand). Here is the method: Binding of W to mHTT. A radioligand binding assay was developed to screen for compounds which can efficiently displace a radioligand detailed elsewhere (see, e.g., U.S. Patent Publication No. from US 2017/0292150) pre-formed polyQ46 or Exon1-polyQ46 aggregates (Q46_RBA).
Aggregation of polyQ peptides is initiated by cleavage of the tag from a GST-polyQ46 or from a MBP-Exon1-polyQ46 fusion protein. The pre-formed aggregates are then incubated with compounds which compete with the [^3H]-radiolabelled ligand for binding to the aggregates. The readout is a scintillation based MicroBeta measurement of radioligand bound to aggregates. The activity was indicated as: +++, <100 nM; ++, 100-500 nM, +, >500 nM.
On the technique in general: Displacement assays read how much labelled ligand stays bound in the presence of the test substance.

Test [2] has as its target VHL complex (VHL, Elongin B, Elongin C, Cul2, Rbx1) (Homo sapiens (Human), UniProt P40337). The experiment in a line: VHL SPR assay. It is filed as binding. An excerpt: Surface Plasmon Resonance (SPR) assays have been developed to test the affinity (KD) of VHL or CRBN-based compounds to respective recombinant ligase complex/domain.
The assays are based on surface plasmon resonance (SPR), which enables to measure the changes of the local refractive index due to changes of molecular mass on a gold chip surface in the case of a binding event and in a flowing system. To detect binding between both partners, the respective E3 ligase is immobilized to the chip surface, while the test compounds are flown over the chip surface at a steady velocity. The detected changes in the RU response are indicative of the binding event and are concentration dependent.
These tags provide the anchor for the capturing process to either an NTA or Streptavidin coated chip surface (immobilization level of 3,000-5,000 RU). Because of the rather complex structure of the VHL complex, it was additionally coupled to the chip surface by amino coupling to prevent any protein loss by disruption of the complex in the flowing system.
To detect binding of compounds and extract dissociation constants KD for the tested compounds to the immobilized E3 ligase, concentration response curves of the compounds were recorded. Compounds were usually tested in 10-pt dilutions up to 20 μM final concentration in assay buffer and were flown over the chip at 30 μL/min. The contact time for each cycle includes 90 s for association and 200 s for dissociation of compounds.
In the following tables, the Kd values are indicated as: +++, <100 nM; ++, 100-500 nM, +, >500 nM.

[3] abbreviates: immobilized VHL complex, read-out: VHL SPR Kd.

Chain of VHL complex (VHL, Elongin B, Elongin C, Cul2, Rbx1) (P40337 whole entry, looked up): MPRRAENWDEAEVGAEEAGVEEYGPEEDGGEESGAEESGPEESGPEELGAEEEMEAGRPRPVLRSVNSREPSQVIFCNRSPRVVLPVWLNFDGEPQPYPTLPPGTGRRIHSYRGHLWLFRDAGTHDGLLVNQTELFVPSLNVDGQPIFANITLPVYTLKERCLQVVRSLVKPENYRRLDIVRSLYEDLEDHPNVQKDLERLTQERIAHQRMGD
Chain of VHL complex (VHL, Elongin B, Elongin C, Cul2, Rbx1) (Q15370 whole entry partner, looked up): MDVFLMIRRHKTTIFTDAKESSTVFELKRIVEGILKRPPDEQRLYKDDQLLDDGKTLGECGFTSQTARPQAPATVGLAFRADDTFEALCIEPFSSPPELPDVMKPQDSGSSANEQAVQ
Chain of VHL complex (VHL, Elongin B, Elongin C, Cul2, Rbx1) (Q15369 whole entry partner, looked up): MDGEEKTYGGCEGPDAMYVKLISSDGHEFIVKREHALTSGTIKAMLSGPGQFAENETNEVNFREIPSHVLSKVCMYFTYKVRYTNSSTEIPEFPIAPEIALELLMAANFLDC
Chain of VHL complex (VHL, Elongin B, Elongin C, Cul2, Rbx1) (Q13617 whole entry partner, looked up): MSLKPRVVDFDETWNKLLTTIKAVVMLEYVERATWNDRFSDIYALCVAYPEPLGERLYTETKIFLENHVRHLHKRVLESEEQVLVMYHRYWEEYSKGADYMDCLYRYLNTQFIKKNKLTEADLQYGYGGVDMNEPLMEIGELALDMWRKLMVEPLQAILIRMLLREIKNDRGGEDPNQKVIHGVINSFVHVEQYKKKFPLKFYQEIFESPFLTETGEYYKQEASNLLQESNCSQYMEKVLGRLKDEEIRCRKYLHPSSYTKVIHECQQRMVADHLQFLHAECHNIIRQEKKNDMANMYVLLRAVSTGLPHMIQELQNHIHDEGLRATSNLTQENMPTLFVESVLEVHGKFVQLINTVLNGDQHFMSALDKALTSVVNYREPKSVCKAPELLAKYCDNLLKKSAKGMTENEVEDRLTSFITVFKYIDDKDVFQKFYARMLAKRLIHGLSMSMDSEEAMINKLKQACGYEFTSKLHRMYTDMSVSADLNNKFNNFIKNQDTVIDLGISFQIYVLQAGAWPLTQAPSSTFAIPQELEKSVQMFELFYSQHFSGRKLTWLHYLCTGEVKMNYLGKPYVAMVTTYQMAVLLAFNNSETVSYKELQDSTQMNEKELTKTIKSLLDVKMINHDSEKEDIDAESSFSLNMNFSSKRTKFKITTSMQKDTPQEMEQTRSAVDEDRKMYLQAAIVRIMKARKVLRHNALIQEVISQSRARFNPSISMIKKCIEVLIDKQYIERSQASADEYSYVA
Chain of VHL complex (VHL, Elongin B, Elongin C, Cul2, Rbx1) (P62877 whole entry partner, looked up): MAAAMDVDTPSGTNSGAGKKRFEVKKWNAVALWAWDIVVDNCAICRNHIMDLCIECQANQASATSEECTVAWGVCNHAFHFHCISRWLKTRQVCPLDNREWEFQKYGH

For the compound `CNc1c(-c2cn3c(n2)sc2cc(OCCOCCOCC(=O)N[C@H](C(=O)N4C[C@H](O)C[C@H]4C(=O)NCc4ccc(-c5scnc5C)cc4)C(C)(C)C)ccc23)nc2cc(C#N)ccn12` [Compound 2], the IC50 in test [1] is below 100 nM. In addition, in test [2] (setting [3]), the Kd was in the range of 100 to 500 nM.

In the case of `CNc1c(-c2cn3c(n2)sc2cc(OCCOCCOCCOCC(=O)N[C@H](C(=O)N4C[C@H](O)C[C@H]4C(=O)NCc4ccc(-c5scnc5C)cc4)C(C)(C)C)ccc23)nc2cc(C#N)ccn12` [Compound 3], in test [1], the IC50 was below 100 nM. Also, the Kd in test [2] (setting [3]) was 100 to 500 nM.

In test [1], `Cc1ncsc1-c1ccc(CNC(=O)[C@H]2C[C@H](O)CN2C(=O)[C@@H](C(C)C)N2Cc3ccccc3C2=O)c(OCCOCCOCCOCCOc2ccc(C(=O)Nc3ccc4oc(-c5ccc(=O)n(C)n5)nc4c3)nc2)c1` [Compound 11] came in with an IC50 below 100 nM. In test [2] (setting [3]), the Kd was above 500 nM.

Consider `Cc1ncsc1-c1ccc(CNC(=O)[C@@H]2C[C@@H](O)CN2C(=O)[C@H](C(C)C)N2Cc3ccccc3C2=O)c(OCCOCCOCCOCCOc2ccc(C(=O)Nc3ccc4oc(-c5ccc(=O)n(C)n5)nc4c3)nc2)c1` [Compound 20, 5-{2-[2-(2-{2-[2-({[(2S,4R)-4-Hydroxy-1-[(2S)-3-methyl-2-(1-oxo-2,3-dihydro-1H-isoindol-2-yl)butanoyl]pyrrolidin-2-yl]formamido}methyl)-5-(4-methyl-1,3-thiazol-5-yl)phenoxy]ethoxy}ethoxy)ethoxy]ethoxy}-N-[2-(1-methyl-6-oxo-1,6-dihydropyridazin-3-yl)-1,3-benzoxazol-5-yl]pyridine-2-carboxamide], for which the IC50 in test [1] is below 100 nM. Also, the Kd in test [2] (setting [3]) is 100 to 500 nM.

For `Cc1ncsc1-c1ccc(CNC(=O)[C@@H]2C[C@@H](O)CN2C(=O)[C@@H](NC(=O)CCOCCOc2ccc(C(=O)Nc3ccc4oc(-c5ccc(=O)n(C)n5)nc4c3)nc2)C(C)(C)C)cc1` [Compound 21], in test [1], the concentration for half-maximal inhibition (IC50) was below 100 nM. Besides, in test [2] (setting [3]), the Kd lay within 100 to 500 nM.

`Cc1ncsc1-c1ccc(CNC(=O)[C@@H]2C[C@@H](O)CN2C(=O)[C@@H](NC(=O)CCOCCOCCOc2ccc(C(=O)Nc3ccc4oc(-c5ccc(=O)n(C)n5)nc4c3)nc2)C(C)(C)C)cc1` [Compound 22, 5-{2-[2-(2-{[(2S)-1-[(2S,4R)-4-Hydroxy-2-({[4-(4-methyl-1,3-thiazol-5-yl)phenyl]methyl}carbamoyl)pyrrolidin-1-yl]-3,3-dimethyl-1-oxobutan-2-yl]carbamoyl}ethoxy)ethoxy]ethoxy}-N-[2-(1-methyl-6-oxo-1,6-dihydropyridazin-3-yl)-1,3-benzoxazol-5-yl]pyridine-2-carboxamide]: the IC50 in test [1] is below 100 nM. In test [2] (setting [3]), the Kd is below 100 nM.

In test [1], `Cc1ncsc1-c1ccc(CNC(=O)[C@@H]2C[C@@H](O)CN2C(=O)[C@@H](NC(=O)CCOCCOCCOCCOc2ccc(C(=O)Nc3ccc4oc(-c5ccc(=O)n(C)n5)nc4c3)nc2)C(C)(C)C)cc1` [Compound 23] came in with an IC50 below 100 nM. In addition, the Kd in test [2] (setting [3]) is below 100 nM.

The compound `Cc1ncsc1-c1ccc(CNC(=O)[C@@H]2C[C@@H](O)CN2C(=O)[C@@H](NC(=O)CCOCCOCCOCCOCCOCCOc2ccc(C(=O)Nc3ccc4oc(-c5ccc(=O)n(C)n5)nc4c3)nc2)C(C)(C)C)cc1` [Compound 24] had a concentration for half-maximal inhibition (IC50) in test [1] below 100 nM. In test [2] (setting [3]), the Kd is below 100 nM.

`Cc1ncsc1-c1ccc(CNC(=O)[C@@H]2C[C@@H](O)CN2C(=O)[C@@H](NC(=O)CCOCCOCCOCCOCCOCCOCCOCCOCCOc2ccc(C(=O)Nc3ccc4oc(-c5ccc(=O)n(C)n5)nc4c3)nc2)C(C)(C)C)cc1` [Compound 25] had an IC50 in test [1] of 100 to 500 nM. In addition, the Kd in test [2] lay within 100 to 500 nM.

In test [1], `Cc1ncsc1-c1ccc(CNC(=O)[C@@H]2C[C@@H](O)CN2C(=O)[C@H](C(C)C)N2Cc3ccccc3C2=O)c(OCCOc2ccc(COc3ccc4oc(-c5ccc(=O)n(C)n5)nc4c3)nc2)c1` [Compound 43, (2S,4R)-4-hydroxy-1-((S)-3-methyl-2-(1-oxoisoindolin-2-yl)butan-oyl)-N-(2-(2-((6-(((2-(1-methyl-6-oxo-1,6-dihydropyridazin-3-yl)benzo[d]oxazol-5-yl)oxy)methyl)pyridin-3-yl)oxy)ethoxy)-4-(4-methylthiazol-5-yl)benzyl)pyrrolidine-2-carboxamide] returned an IC50 below 100 nM. Besides, the dissociation constant (Kd) in test [2] (setting [3]) was above 500 nM.

In test [1], `Cc1ncsc1-c1ccc(CNC(=O)[C@@H]2C[C@@H](O)CN2C(=O)[C@H](C(C)C)N2Cc3ccccc3C2=O)c(OCCOCCOc2ccc(COc3ccc4oc(-c5ccc(=O)n(C)n5)nc4c3)nc2)c1` [Compound 44] gave an IC50 of 100 to 500 nM. Also, in test [2] (setting [3]), the Kd was above 500 nM.

`Cc1ncsc1-c1ccc(CNC(=O)[C@@H]2C[C@@H](O)CN2C(=O)[C@H](C(C)C)N2Cc3ccccc3C2=O)c(OCCOCCOCCOc2ccc(COc3ccc4oc(-c5ccc(=O)n(C)n5)nc4c3)nc2)c1` [Compound 45]: the IC50 in test [1] fell in the range of 100 to 500 nM. Further, in test [2] (setting [3]), the Kd was above 500 nM.

In turn, `Cc1ncsc1-c1ccc(CNC(=O)[C@@H]2C[C@@H](O)CN2C(=O)[C@H](C(C)C)N2Cc3ccccc3C2=O)c(OCCOCCOCCOCCOc2ccc(COc3ccc4oc(-c5ccc(=O)n(C)n5)nc4c3)nc2)c1` [Compound 46] had an IC50 in test [1] of 101 nM. For the same compound, the Kd in test [2] (setting [3]) was above 500 nM.

Regarding `Cc1ncsc1-c1ccc(CNC(=O)[C@@H]2C[C@@H](O)CN2C(=O)[C@@H](NC(=O)COCCOCCOc2ccc(COc3ccc4oc(-c5ccc(=O)n(C)n5)nc4c3)nc2)C(C)(C)C)cc1` [Compound 47, (2S,4R)-1-[(2S)-3,3-Dimethyl-2-{2-[2-(2-{[6-({[2-(1-methyl-6-oxo-1,6-dihydropyridazin-3-yl)-1,3-benzoxazol-5-yl]oxy}methyl)pyridin-3-yl]oxy}ethoxy)ethoxy]acetamido}butanoyl]-4-hydroxy-N-{[4-(4-methyl-1,3-thiazol-5-yl)phenyl]methyl}pyrrolidine-2-carboxamide], in test [1], the half-maximal inhibitory concentration (IC50) was below 100 nM. Besides, the Kd in test [2] (setting [3]) lay in the range of 100 to 500 nM.

With `Cc1ncsc1-c1ccc(CNC(=O)[C@H]2C[C@H](O)CN2C(=O)[C@H](NC(=O)COCCOCCOc2ccc(COc3ccc4oc(-c5ccc(=O)n(C)n5)nc4c3)nc2)C(C)(C)C)cc1` [Compound 48], the IC50 in test [1] was below 100 nM. Also, the Kd in test [2] (setting [3]) is above 500 nM.

For `Cc1ncsc1-c1ccc(CNC(=O)[C@@H]2C[C@@H](O)CN2C(=O)[C@@H](NC(=O)COCCOCCOCCOc2ccc(COc3ccc4oc(N5CCNCC5)nc4c3)nc2)C(C)(C)C)cc1` [Compound 53, (2S,4R)-1-((S)-2-(tert-butyl)-4-oxo-14-((6-(((2-(piperazin-1-yl)benzo-[d]oxazol-5-yl)oxy)methyl)pyridin-3-yl)oxy)-6,9,12-trioxa-3-azatetradecanoyl)-4-hydroxy-N-(4-(4-methylthiazol-5-yl)benzyl)pyrrolidine-2-carboxamide], in test [1], the IC50 is above 500 nM. In test [2] (setting [3]), the dissociation constant Kd was in the range of 100 to 500 nM.

Take `Cc1ncsc1-c1ccc(CNC(=O)[C@@H]2C[C@@H](O)CN2C(=O)[C@@H](NC(=O)COCCOCCOCCOCCOc2ccc(COc3ccc4oc(N5CCNCC5)nc4c3)nc2)C(C)(C)C)cc1` [Compound 54]: in test [1], the IC50 is above 500 nM. Moreover, the dissociation constant Kd in test [2] (setting [3]) was above 500 nM.

`COc1ccc(COc2ccc3oc(N4CCN(CCOCCOCCOCC(=O)N[C@H](C(=O)N5C[C@H](O)C[C@H]5C(=O)NCc5ccc(-c6scnc6C)cc5)C(C)(C)C)CC4)nc3c2)nc1` [Compound 55, (2S,4R)-1-((S)-2-(tert-butyl)-14-(4-(5-((5-methoxypyridin-2-yl)meth-oxy)benzo[d]oxazol-2-yl)piperazin-1-yl)-4-oxo-6,9,12-trioxa-3-azatetradecanoyl)-4-hydroxy-N-(4-(4-methylthiazol-5-yl)benzyl)pyrrolidine-2-carboxamide] had an IC50 in test [1] of 100 to 500 nM. Also, the Kd in test [2] (setting [3]) lay in the range of 100 to 500 nM.

For the compound `COc1ccc(COc2ccc3oc(N4CCN(CCOCCOCCOCCOCC(=O)N[C@H](C(=O)N5C[C@H](O)C[C@H]5C(=O)NCc5ccc(-c6scnc6C)cc5)C(C)(C)C)CC4)nc3c2)nc1` [Compound 56], the IC50 in test [1] is above 500 nM. The Kd in test [2] (setting [3]) was 100 to 500 nM.

In the case of `Cc1ncsc1-c1ccc(CNC(=O)[C@@H]2C[C@@H](O)CN2C(=O)[C@@H](NC(=O)COCCOCCOCCOCCOc2ccc(COc3ccc4oc(N5CCn6ccnc6C5)nc4c3)nc2)C(C)(C)C)cc1` [Compound 57], the IC50 in test [1] is below 100 nM. In addition, the Kd in test [2] (setting [3]) lay within 100 to 500 nM.

For `COc1ccc(NC(=O)c2ccnc(N(CCOCCOCCNC(=O)[C@H](CC(C)C)NC(=O)[C@@H](O)[C@H](N)Cc3ccccc3)c3ccccc3)n2)cn1` [Compound 69], in test [1], the half-inhibitory concentration (IC50) is above 500 nM.
